Results: US9552457B2, “Reprogramming effector protein interactions to correct epigenetic defects in cancer” (BRITISH COLUMBIA CANCER AGENCY BRANCH, priority 2012, dated 2017)
Where two headings read alike, the source gives them in different places. Blank lines part the entries; values can stand above or below the molecule they belong to.

Assays:
[1] = test system: DoHH-2, OCI-LY3, WSU-DLCL2 (all wild-type for MLL2); test: alamarBlue cell proliferation assay, MLL2 wild-type cell lines; type: cell-based; conditions: for activity against wild-type cells: in words
Procedure: Diffuse large B-cell lymphoma cell lines were maintained in RPMI medium 1640 (Life Technologies) supplemented with 10% (v/v) fetal bovine serum (Life Technologies) and 1% penicillin/streptomycin (Life Technologies) in a 37° C. incubator with 5% CO2, humidified atmosphere. Cell line DOHH2 was obtained from DSMZ. Pfeiffer was obtained from ATCC. SU-DHL-9 was obtained from Martin Dyer (University of Leicester, UK).
(§1) Compounds were initially solubilized in DMSO at a concentration of 10 mM. This compound solution was further diluted 1:100 in RPMI medium 1640 to a final concentration of 100 μM. Ninety microliters of cells maintained at a concentration of 4×10^5 cells/mL were dispensed into wells of a MICROTEST™ 96-well Assay Plate, Optilux™ (BD). Ten microliters of the 100 μM compound solution were then added to the cells resulting in a final compound concentration of 10 μM. Each compound was tested in triplicate. Ten microliters of a 1:100 DMSO to RPMI medium 1640 solution were also added to 90 μL of cells as a carrier control. Furthermore, each plate included wells containing only RPMI medium 1640 to serve as a background noise control as well as cells that were completely untreated. Compounds were incubated with the cells in a 37° C. incubator with 5% CO2, humidified atmosphere for 48 hours before being subjected to the alamarBlue® cell proliferation assay (Life Technologies). Raw fluorescent units were corrected for background noise and normalized to the carrier-treated control.
The activity of Compound 3 in vitro was investigated further using the cell lines DoHH-2, OCI-LY3, WSU-DLCL2 (all wild-type for MLL2) and SU-DHL9. In addition, the dose response for Compound 2 was investigated in cell lines mutant for MLL2 or both MLL2 and EZH2. The dose response for Compound 3 was investigated in a MLL2 mutant cell line. Methods were as described for Example 3. Cell-line WSU-DLCL2 was obtained from DSMZ and OCI-Ly lines 3 was obtained from Louis Staudt (US National Institutes of Health).

[2] = biological target: T1, GST-BPTF dual PHD finger-bromodomain (Homo sapiens, UniProt Q12830); test: BPTF pull down assay with H3K4 methylated peptides; type: binding; conditions: 68 μM drug
T1 construct: The dual PHD finger-bromodomain (residues 2583-2751) from the human BPTF (gi:31322942); made in house; host or cells: E. coli BL21-AI
Procedure: Certain embodiments of the invention relate to the use of a “pull down” assay to characterize the binding of candidate compounds to the target mark. A general schema for such an assay as it applies to BPTF is shown in FIG. 4 and described in Example 5. Briefly, the GST-labeled PHD finger-bromodomain of BPTF was incubated with the candidate compound and H3K4me0, me1, me2 or me3 peptides that were coupled to streptavidin-labeled dynabeads through a biotin molecule on the peptide. After washing with an appropriate buffer, bound protein was eluted from the beads and assessed by SDS-PAGE and optionally Western blot. One skilled in the art will appreciate that this assay can be readily adapted to other readers/erasers and histone marks.
The full-length human BPTF construct was obtained from C. David Allis of the Laboratory of Chromatin Biology, Rockefeller University (Li et al., 2006, ibid). The dual PHD finger-bromodomain (residues 2583-2751) from the human BPTF (gi:31322942) was cloned into a pDEST15 vector using Gateway® cloning technology allowing for an N-terminal GST tag (Life Technologies). Over-expression of the GST-BPTF dual PHD finger-bromodomain was induced in BL21-AI™ chemically competent E. coli cells using LB medium supplemented with 1 mM IPTG and 0.2% L-arabinose for 2 hours in a 37° C. shaking incubator. GST-BPTF dual PHD finger-bromodomain was purified using Glutathione Sepharose 4B media (GE Healthcare Life Sciences) and dialyzed against PBS (Life Technologies) overnight.
The peptide pull-down experiment was performed essentially as previously described (Ruthenburg et al., 2011, Cell, 145(5):692-706.). Fifty microliters of M-280 streptavidin-coupled Dynabeads® (Life Technologies) were dispensed into 1.5 mL microtubes and washed 3×50 μL in PBS. The beads were then incubated with C-terminally biotinylated H3K4me0, me1, me2 or me3 peptides 21 amino acids long (Anaspec) rotating for 1 hour at 4° C. under saturating conditions. The beads were washed 3×100 μL in HBS-TD (10 mM Na-HEPES, 150 mM NaCl, 0.005% Tween-20, 2 mM DTT) and incubated with 6.8 μM of GST-BPTF along with either 68 μM of drug in a 1:100 DMSO to PBS solution or carrier alone rotating for 3 hours at 4° C. The beads were then washed 10×200 μL in HBS-TD. The protein was eluted using 2×LDS sample buffer (Life Technologies) and 1× reducing agent (Life Technologies) at 85° C. for 10 minutes. Samples were subjected to SDS-PAGE and bands were visualized using either SimplyBlue stain (Life Technologies) or GST antibody (Santa Cruz). Quantification of bands was made using ImageJ software.

[3] = test system: SU-DHL-9 (MLL2 mutated) tumours; test: SU-DHL-9 mouse xenograft model; type: in vivo; conditions: eight days, day nine
Procedure: NOD/SCID/γ^null (NSG) mice were bred at the local BCCRC animal facility. To establish primary tumors, male NSG mice were inoculated with 1×10^7 cells of the human diffuse histiocytic lymphoma cell line SU-DHL-9 in 50 μl PBS in the flank area. After development of s.c. tumors, mice were sacrificed and small fragments of the tumors (˜20 mg) were transplanted s.c. into the right flank of anesthetized six-ten weeks old male NSG recipient mice using 13 G trocar needles. Treatment was initiated once the tumors became palpable. Tumourlength and width was determined by caliper and tumourvolume was calculated by the modified ellipsoidal formula as […].
Compounds were diluted in a mixture of 50% DMSO and 50% polyethylene glycol 200. Eight tumor-bearing mice per group were administered by intraperitoneal injections daily over a period of eight days with either compounds at doses of 1 mg/kg or 4 mg/kg (Compound 3; NSC 127763), 4 mg or 12 mg/kg (Compound 2; NSC 304107) or the vehicle for control. Body weight was recorded every two days, tumoursize every four days and mice were monitored for any other additional adverse effects. Experimental animals were sacrificed at day nine, tumourvolumes were determined and the significance of differences was determined by Student's t-test after normalizing to the initial tumourvolume.

[4] = test system: SU-DHL-9 (MLL2 homozygous indel mutant) cell line; test: alamarBlue cell proliferation assay, SU-DHL-9 cell line; type: cell-based, human; conditions: for activity at 10 µM: Homo sapiens, 48 hours, normalized to carrier-treated control, SU-DHL-9, read-out: % Cell Proliferation; for activity against the MLL2 double LoF mutant cell line: SU-DHL-9, in words; for activity as worded in SAR analysis (selective toxicity against SU-DHL-9): in words, restates Tables 3 and 4
Procedure: Cell line DOHH2 was obtained from DSMZ. Pfeiffer was obtained from ATCC. SU-DHL-9 was obtained from Martin Dyer (University of Leicester, UK).
as §1, with “This compound solution was further diluted 1:100 in RPMI medium 1640 to a final concentration of 100 μM.” left out, “Ten microliters of a 1:100 DMSO to RPMI medium 1640 solution were also added to 90 μL of cells as a carrier control. Furthermore, each plate included wells containing only RPMI medium 1640 to serve as a background noise control as well as cells that were completely untreated.” left out

[5] = test system: WSU-DLCL2 human diffuse large cell lymphoma tumours; test: WSU-DLCL2 mouse xenograft model; type: in vivo; conditions: evaluation at day 12
Procedure: WSU-DLCL2 tumourfragments were transplanted subcutaneously into the flank of male NSG mice. Mice were 9.0-9.3 weeks at transplantation and treatment was started when the mice were between 12.9 and 13.1 weeks. 8 mice were used per group and treatment was daily for ten days with evaluation at day 12. Tumoursize determined by caliper every four days, tumourvolume calculated by length×width^2/2.
The groups of mice were treated with vehicle (control), 1 mg/kg Compound 50 or 4 mg/kg Compound 50 by intraperitoneal injection. Vehicle was 50% DMSO/50% PEG-400.
WSU-DLCL2 tumourfragments were transplanted subcutaneously into the flank of male NSG mice. Mice were 5.3-9.4 weeks at transplantation and treatment was started when the mice were between 8.6 and 12.7 weeks. 8 mice were used in the control group and 6 mice were used in the Compound 51 treated group. Treatment was daily for ten days with evaluation at day 12. Tumoursize determined by caliper every four days, tumourvolume calculated by length×width^2/2.
The groups of mice were treated with vehicle (control) or Compound 51 by intraperitoneal injection at 4 mg/kg for the first 5 days and 2 mg/kg for the subsequent 5 days. Vehicle was 50% DMSO/50% PEG-400.

[6] = test system: DoHH2 Cells (wildtype for EZH2, MEF2B and MLL2); test: Cell viability of lymphoma cell lines, DoHH-2; type: cell-based; conditions: DoHH-2, in words
Procedure: (§2) Compound 50 was tested for its effect on the viability of three lymphoma cell lines in vitro using standard methods. The cell lines tested were: DoHH-2 (wildtype for EZH2, MEF2B and MLL2); WSU-DLCL2 (EZH2 mutation Y641F (wildtype for MEF2B and MLL2)) and DB (EZH2 mutation Y641N, the MEF2B mutation D83V and three mutations in MLL2 (two of which lead to a truncated protein after residue Q2736 and the third allele has a 1 base pair deletion at residue P480)).
(§3) Compound 51 (NSC2540) was tested for its effect on the viability of four lymphoma cell lines in vitro using standard methods. The cell lines tested were DoHH-2, WSU-DLCL2, DB and SU-DHL-9 (EZH2 wildtype, MEF2B wildtype, MLL2 indel).

[7] = test system: WSU-DLCL2 Cells (EZH2 mutation Y641F); test: Cell viability of lymphoma cell lines, WSU-DLCL2; type: cell-based, human; conditions: WSU-DLCL2, in words
Procedure: as §2, §3

[8] = test system: DB (EZH2 mutation Y641N, MEF2B mutation D83V, three mutations in MLL2); test: Cell viability of lymphoma cell lines, DB; type: cell-based; conditions: in words
Procedure: as §2

[9] = test system: SU-DHL-9 (EZH2 wildtype, MEF2B wildtype, MLL2 indel); test: Cell viability of lymphoma cell lines, SU-DHL-9 (CBX2 compound); type: cell-based, human; conditions: SU-DHL-9, in words
Procedure: as §3

[10] = test system: HCC1500 (CRL-2329); test: Viability of breast cancer cell lines, HCC1500; type: cell-based; conditions: in words
Procedure: (§4) Compounds 50 and 51 were tested for their effect on the viability of four breast cancer cell lines in vitro using standard methods. The cell lines tested were: MCF-7, MDA-MB-231, HCC202 (CRL-2316) and HCC1500 (CRL-2329).

[11] = test system: HCC202 (CRL-2316); test: Viability of breast cancer cell lines, HCC202; type: cell-based; conditions: in words
Procedure: as §4

[12] = test system: MDA-MB-231; test: Viability of breast cancer cell lines, MDA-MB-231; type: cell-based; conditions: MDA-MB-231, in words
Procedure: as §4

[13] = 6.8 μM GST-BPTF, GST antibody staining

- binding of H3K4me2 with BPTF [2, 13]: able to stabilize the binding
- binding of H3K4me3 with BPTF [2, 13]: diminished binding
SMILES: CN(C)CCC(=O)c1ccc(Cl)cc1Cl [Compound 2, 1-(2,4-dichloro-phenyl)-3-dimethylamino-propan-1one]
- activity against wild-type cells [1]: inactive
- median tumour growth ([3]; 12 mg/kg intraperitoneal daily, untreated control 1755%): 1305%
- activity at 10 µM ([4]; Table 3, scaffold A): < 10%
- activity against the MLL2 double LoF mutant cell line [4]: active
- activity as worded in SAR analysis (selective toxicity against SU-DHL-9) [4]: active

- binding of H3K4me1 with BPTF [2, 13]: able to stabilize the binding
- binding of H3K4me3 with BPTF [2, 13]: diminished binding
- Densitometry value, H3K4me3 + compound ([2]; without compound 2545): 4227
- Densitometry value, H3K4me1 + compound ([2]; without compound 9350): 13335
SMILES: O=C1c2ccccc2C(=O)c2c(NC(=O)C(Cl)CCl)cccc21 (stereo not shown) [Compound 3, 2,3-didhloro-N-(9,10-dioxo-9,10-dihydro-anthracen-1-yl)-propionamide]
- effect on cells where MLL2 was wild-type ([1]; DoHH-2, OCI-LY3, WSU-DLCL2): no obvious effect
- activity against wild-type cells [1]: inactive
- median tumour growth ([3]; 4 mg/kg intraperitoneal daily, untreated control 563%): 362%
- activity at 10 µM ([4]; Table 4, scaffold B): < 10%
- activity against the MLL2 double LoF mutant cell line [4]: active
- activity as worded in SAR analysis (selective toxicity against SU-DHL-9) [4]: active

SMILES: O=C(CBr)c1cc(-c2ccccc2)nc2c(Cl)cc(Cl)cc12 [Compound 50]
- effect on tumour volume ([5]; 1 mg/kg or 4 mg/kg intraperitoneal daily for ten days, p=0.0047 control vs 4 mg/kg): able to reduce tumour volume
- effect on viability [6]: reduced the viability
- effect on viability [7]: highest activity
- effect on viability [8]: reduced the viability

SMILES: OC(c1cc(-c2ccc(Cl)c(Cl)c2)nc2ccccc12)C1CCCCN1 (stereo not shown) [Compound 51]
- effect on viability [9]: able to decrease viability
- effect on tumour volume ([5]; intraperitoneal 4 mg/kg for 5 days then 2 mg/kg for 5 days, p=0.0125): able to significantly reduce tumourvolume
- effect on viability [6]: able to decrease viability
- effect on viability [7]: able to decrease viability
- effect on viability [10]: able to decrease viability
- effect on viability [11]: able to decrease viability
- effect on viability [12]: able to decrease viability
